Source: patent US20230348437A1, “COMPOUNDS, COMPOSITIONS AND METHODS” (Denali Therapeutics Inc., priority 2020, published 2023)

Columns and labels:
[1] = system: NLRP3 (IL-1β secretion from THP-1 cells); test: IL-1β secretion assay in 384-well plates, PMA differentiated THP-1 cells, LPS and nigericin stimulation; format: cell-based; settings: Homo sapiens; THP-1 cells, PMA 5 ng/mL, LPS 25 ng/mL, nigericin, IL-1β ELISA, 384-well; read-out: Activity
Procedure: Compounds as provided herein were tested in the following assay. […] Freezing medium was made up of 90% FBS and 10% DMSO. THP-1 cells were removed from the liquid nitrogen and placed into a 37° C. water bath to thaw, until signs of ice dissipated. The cells were then added to 9 mL of warm cell culture medium and centrifuged for 5 minutes at 1000 rpm. The supernatant was discarded, and the cells were resuspended in new cell culture medium. The THP-1 cells were then split and cultured in the cell culture medium, being passaged every 2-3 days (5×10^5 cells/mL passaged every two days, 3×10^5 cells/mL passaged every three days). Cell density was maintained between 5×10^5-1.5×10^6 viable cells/mL.
PMA was dissolved in DMSO to make a stock solution at 5 mg/mL and stored in 10 µl aliquots at -20° C. for single use. PMA is added to normal growth medium. LPS was diluted with 1 mL of water solution to provide a 1 mg/mL stock solution and stored in 15 µl aliquots at -20° C. for single use. Nigericin is diluted in ice cold 100% ethanol to 5 mg/mL (6.7 mM) and stored in 75 µL aliquots at -20° C. for single use. […] The two control conditions used to qualify and normalize test compound dose-response curves were as follows: High Control = 25 ng/mL LPS, 5 µM Nigericin, 0.5% DMSO, Low Control = 25 ng/mL, LPS, 0.5% DMSO.
THP-1 cells were diluted to provide a suspension at a concentration of 1.0×10^6 cells/mL with the total volume of suspension required to enable the desired number of assay plates. The growth media was supplemented with PMA (5 ng/mL final concentration) and the cells were incubated at 37° C. under a humidified atmosphere of 5% CO2 for 40 h.
All media was carefully aspirated from each culture flask. The cells were washed carefully with 1x DPBS. The cells were then briefly digested with trypsin LE for 5 minutes at 23° C. and immediately resuspended in cell growth media. After resuspension, the cells were centrifuged at 1000 rpm for 3 minutes and the supernatant was discarded. The cells were resuspended in DPBS and once again centrifuged at 1000 rpm for 5 minutes. The supernatant was discarded and the cell pellet was resuspended in serum-free media supplemented with LPS (25 ng/mL final concentration) to enable the distribution of 30 K THP-1 cells within 45 µL of media into each well of 384-well PDL-coated plates. The 384-well plates were then incubated at 37° C. under a humidified atmosphere of 5% CO2 for 2 h. Following this period, test compounds were dispensed by Tecan across the desired concentration range with all wells normalized to a final 0.5 % DMSO concentration. The plates were then incubated at 37° C. under a humidified atmosphere of 5% CO2 for 1 h. Following this period, 5 µL of the […] nigericin stock solution was added to each of the appropriate wells and plates were centrifuged at 1000 rpm for 30 seconds. The plates were the immediately reintroduced to the incubator at 37° C. under a humidified atmosphere of 5% CO2 for 2 h. After this time, 35 µL/well of supernatant was collected and transferred into v-bottom plate and centrifuged at 1000 rpm for 1 minute. These supernatant aliquots were analyzed using an IL-Iβ detection kit as described below. If needed, the test samples could be snap frozen and stored at -80° C. until analyzed.
To prepare each ELISA plate, capture antibody (mAb Mt175) was diluted with PBS to a final concentration of 2 µg/mL and then 20 µL of this solution was added to each well of the ELISA plate. Each plate was allowed to incubate overnight at 4° C. The next day, the capture antibody solution was removed and discarded. […] Each ELISA plate was then allowed to incubate for 1 hour at 23° C. After this time, the blocking buffer was removed and discarded. Each ELISA plate was washed 4 times with PBST. During this time, the v-bottomed plates containing the supernatant aliquots from the assay run were centrifuged at 300 g for 5 minutes before transferring 15 µL/well of the supernatant sample to each ELISA plate. […]

[2] = system: NLRP3 (IL-1β release from THP-1 cells); test: IL-1β detection in IFN-γ differentiated THP-1 cells, LPS induction and ATP, 96 well format; format: cell-based; settings: Homo sapiens, IFN-γ 25 ng/mL, LPS 50 ng/mL, ATP 5 mM, IL-1β ELISA, read-out: Activity (IC50 class)
Procedure: Compounds as provided herein were tested in the following assay. Cell culture medium employed contained RPMI 1640 medium (89%), FBS (10%), Pen/Strep (1%), and 2-mercaptoethanol (0.05 mM). Freezing medium was made up of 90% FBS and 10% DMSO. THP-1 cells were removed from the liquid nitrogen and placed into a 37° C. water bath to thaw, until signs of ice dissipated. The cells were then added to 9 mL of warm cell culture medium and centrifuged for 5 minutes at 1000 rpm. The supernatant was discarded, and the cells were resuspended in new cell culture medium. The THP-1 cells were then split and cultured in the cell culture medium, being passaged every 2-3 days (5×10^5 cells/mL passaged every two days, 3×10^5 cells/mL passaged every three days). Cell density was maintained between 5×10^5-1.5×10^6 viable cells/mL.
To freeze, cells were resuspended with fresh freezing medium, adjusting the cell density to between 3×10^6-10×10^6 cells/mL. The cell suspension was partitioned into 1 mL aliquots per vial, and the vials were transferred to a -80° C. freezer. After one day at -80° C., the cell vials were transferred to liquid nitrogen freezer for storage.
PBST solution was prepared by mixing 3600 mL of water, 400 mL of 10X PBS, and 4 mL of Tween 20. IFN-γ solution was reconstituted with 100 µL of water to obtain a 1 mg/mL solution, which was then diluted with 0.1 % BSA to provide a 100 ng/mL solution. The IFN-γ solution was stored at -20° C. LPS was reconstituted with 1 mL of PBS solution to obtain a 1 mg/mL stock solution, which was further diluted to 50 ng/mL with serum-free medium. The LPS solution was stored at 4° C.
The 96 well plates were then incubated at 37° C. under a humidified atmosphere of 5% CO2 for 24 h.
LPS induction: When IFN-γ treatment was completed, the supernatants were discarded by hand. 100 µL of a 1X solution of LPS in serum-free medium (50 ng/mL) was added. The plates were incubated in a 37° C. incubator under a humidified atmosphere of 5% CO2 for 4 h. Sample compounds were dissolved in DMSO and the compound solutions were dispensed to the wells using a Tecan D300e digital dispenser. The final concentration of DMSO for each well was 0.5%. The plates were then incubated at 37° C. under a humidified atmosphere of 5% CO2 for 1 h. 20 µL of a 6X solution of ATP was added (final concentration per well: 5 mM), and the plates incubated at 37° C. under a humidified atmosphere of 5% CO2 for 1 h. The supernatants were then collected and analyzed using an IL-Iβ detection kit. If needed, the test samples could be stored at -20° C. until analyzed.
Compound dilution: Compound solution source plates (20 µL of a 10 mM solution of each compound was delivered to the specified wells and stored in a nitrogen cabinet until tested.
Coat Elisa plate: The captured antibody (mAb Mt175) was diluted in PBS to a concentration of 2 µg/mL, and then used to coat the ELISA plate (SIGMA-P6366) overnight at 4° C.
The antibody coat was discarded and the plate was washed 4 times with PBST. The plate was blocked by adding 25 µL/well of blocking buffer (LiCor-927-40000) with 0.1% Tween 20, then incubated for 1 h at room temperature. The blocking buffer was then discarded and the plate was washed 4 times with PBST.
One hour before test sample addition, the sample plates were allowed to thaw at room temperature, centrifuged at 1000 rpm for 1 minute, and shaken for 30 seconds. 25 µL/well of the test samples were transferred to the ELISA plate, and the plate was incubated for 2 h at room temperature.
The test samples were discarded and the ELISA plate was washed 4 times with PBST. 15 µL/well of mAb7P10-biotin at 0.5 µg/mL (1:1000) in blocking buffer was then added to the ELISA plate and it was incubated for 1 h at room temperature.
The antibody was discarded and the ELISA plate was washed 4 times with PBST. Then 15 µL/well of streptavidin-HRP diluted 1:1000 in blocking buffer was added to the ELISA plate and it was allowed to incubate for 1 h at room temperature.

Structure (SMILES)	IC50 [1] [µM]	IC50 [2] [µM]
CC(C)c1nn(CC(=O)N[C@H]2C[C@@](C)(O)C2)c(=O)cc1-c1ccccc1F [Example 11, 2-(4-(2-fluorophenyl)-3-isopropyl-6-oxopyridazin-1(6H)-yl)-N-(cis-3-hydroxy-3-methylcyclobutyl)acetamide]	2.88	< 10
CC(C)c1nn(CC(=O)N[C@H]2C[C@@](C)(O)C2)c(=O)cc1-c1cccc(F)c1 [Example 12, 2-(4-(3-fluorophenyl)-3-isopropyl-6-oxopyridazin-1(6H)-yl)-N-(cis-3-hydroxy-3-methylcyclobutyl)acetamide]	1.66	< 10
CC(C)c1nn(CC(=O)N[C@H]2C[C@@](C)(O)C2)c(=O)cc1-c1cccc(C(F)(F)F)c1 [Example 13, N-(cis-3-hydroxy-3-methylcyclobutyl)-2-(3-isopropyl-6-oxo-4-(3-(trifluoromethyl)pheny 1)pyridazin-1(6H)-yl)acetamide]	21.8	< 10
CC(C)c1nn(CC(=O)N[C@H]2C[C@@](C)(O)C2)c(=O)cc1-c1cccc(Br)c1 [Example 14, 2-(4-(3-bromophenyl)-3-isopropyl-6-oxopyridazin-1(6H)-yl)-N-(cis-3-hydroxy-3-methylcyclobutyl)acetamide]	1.49	< 10
CC(C)c1nn(CC(=O)N[C@H]2C[C@@](C)(O)C2)c(=O)cc1-c1cccc(Cl)c1Cl [Example 15, 2-(4-(2,3-dichlorophenyl)-3-isopropyl-6-oxopyridazin-1(6H)-yl)-N-(cis-3-hydroxy-3-methylcyclobutyl)acet amide]	3.51	< 10
CC(C)c1nn(CC(=O)N[C@H]2C[C@@](C)(O)C2)c(=O)cc1-c1cc(Cl)ccc1Cl [Example 16, 2-(4-(2,5-dichlorophenyl)-3-isopropyl-6-oxopyridazin-1(6H)-yl)-N-(cis-3-hydroxy-3-methylcyclobutyl)acet amide]	1.15	< 10
CC(C)c1nn(CC(=O)N[C@H]2C[C@@](C)(O)C2)c(=O)cc1-c1ccccn1 [Example 17]	19.5	< 10
C[C@]1(O)C[C@@H](NC(=O)Cn2nc(Cl)c(-c3ccccc3)cc2=O)C1 [Example 18, 2-(3-chloro-6-oxo-4-phenylpyridazin-1(6H)-yl)-N-(cis-3-hydroxy-3-methylcyclobutyl)acetamide]	50	> 15
COc1nn(CC(=O)N[C@H]2C[C@@](C)(O)C2)c(=O)cc1-c1ccccc1 [Example 19]	21.7	< 10
CC(C)c1nn(CC(=O)N[C@H]2C[C@@](C)(O)C2)c(=O)nc1-c1ccccc1 [Example 20, N-(cis-3-hydroxy-3-methylcyclobutyl)-2-(6-isopropyl-3-oxo-5-phenyl-1,2,4-triazin-2(3H)-yl)acetamide]	24	< 10
